The compounds below were run against Human neutrophil elastase (Homo sapiens (Human), UniProt P08246) (assay: Human Neutrophil Elastase Assay). Conditions: substrate MeOSuc-Ala-Ala-Pro-Val-AMC 250 μM, pH 7.5.
Type: biochemical
Method: The following buffers were used: Compound buffer: 100 mM Tris, 500 mM NaCl, adjusted to pH 7.5; Assay buffer: 100 mM Tris, 500 mM NaCl, adjusted to pH 7.5, containing 0.01% BSA.
Assay conditions: Test compounds were prediluted in DMSO and subsequently in compound buffer (5% DMSO final). […] After inactivation of the enzyme, fluorescence intensities were measured at 380 nm excitation and 460 nm emission wavelengths.
Each plate contains wells with a high value control (DMSO+enzyme+substrate) and wells with a low value control (DMSO+inactivated enzyme+substrate). IC50 values were estimated using a sigmoidal concentration response curve with variable slope. Means of low values were taken as 0%, means of high values as 100%.

Sequence of Human neutrophil elastase (P08246 30-247): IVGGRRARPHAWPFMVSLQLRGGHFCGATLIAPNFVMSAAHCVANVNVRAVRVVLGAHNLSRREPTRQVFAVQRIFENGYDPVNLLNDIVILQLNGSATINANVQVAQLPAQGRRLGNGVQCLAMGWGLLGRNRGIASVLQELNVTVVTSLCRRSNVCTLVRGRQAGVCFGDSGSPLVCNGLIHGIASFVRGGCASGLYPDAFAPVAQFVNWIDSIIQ

Row | Compound | IC50 [nM]
1 | CN1C(=O)N(c2cccc(C(F)(F)F)c2)C2=C(C(=O)CC2)C1c1ccc(C#N)cc1C(=O)N1Cc2cnn(C)c2C1 (stereo not shown) [Example 1.67] | 4.1
2 | CN1C(=O)N(c2cccc(C(F)(F)F)c2)C2=C(C(=O)CC2)C1c1ccc(C#N)cc1C(=O)N1CCn2ccnc2C1 (stereo not shown) [Example 1.68] | < 1
3 | CN1C(=O)N(c2cccc(C(F)(F)F)c2)C2=C(C(=O)CC2)C1c1ccc(C#N)cc1C(=O)N1CCc2nocc2C1 (stereo not shown) [Example 1.69] | 9.8
4 | CN1C(=O)N(c2cccc(C(F)(F)F)c2)C2=C(C(=O)CC2)C1c1ccc(C#N)cc1C(=O)N1CCn2ncnc2C1 (stereo not shown) [Example 1.70] | 1.9
5 | CN(Cc1ccnn1C)C(=O)c1cc(C#N)ccc1C1C2=C(CCC2=O)N(c2cccc(C(F)(F)F)c2)C(=O)N1C (stereo not shown) [Example 1.71] | < 1
6 | CN(Cc1cncn1C)C(=O)c1cc(C#N)ccc1C1C2=C(CCC2=O)N(c2cccc(C(F)(F)F)c2)C(=O)N1C (stereo not shown) [Example 1.72] | < 1
7 | CN(Cc1ccn(C)n1)C(=O)c1cc(C#N)ccc1C1C2=C(CCC2=O)N(c2cccc(C(F)(F)F)c2)C(=O)N1C (stereo not shown) [Example 1.73] | 1.3
8 | CN(Cc1nccn1C)C(=O)c1cc(C#N)ccc1C1C2=C(CCC2=O)N(c2cccc(C(F)(F)F)c2)C(=O)N1C (stereo not shown) [Example 1.74] | < 1
9 | CN(Cc1nncn1C)C(=O)c1cc(C#N)ccc1C1C2=C(CCC2=O)N(c2cccc(C(F)(F)F)c2)C(=O)N1C (stereo not shown) [Example 1.75] | 1.4
10 | CN1C(=O)N(c2cccc(C(F)(F)F)c2)C2=C(C(=O)CC2)C1c1ccc(C#N)cc1C(=O)NCCN1CCOCC1 (stereo not shown) [Example 1.76] | 4.5
11 | CC(=O)N(C)[C@H]1CCN(C(=O)c2cc(C#N)ccc2C2C3=C(CCC3=O)N(c3cccc(C(F)(F)F)c3)C(=O)N2C)C1 (stereo partly shown) [Example 1.77] | 2.3
12 | CC(=O)N(C)[C@@H]1CCN(C(=O)c2cc(C#N)ccc2C2C3=C(CCC3=O)N(c3cccc(C(F)(F)F)c3)C(=O)N2C)C1 (stereo partly shown) [Example 1.78] | 2.6
13 | CN1C(=O)N(c2cccc(C(F)(F)F)c2)C2=C(C(=O)CC2)C1c1ccc(C#N)cc1C(=O)N1CCC(N2CCOCC2)C1 (stereo not shown) [Example 1.79] | 3
14 | CN1C(=O)N(c2cccc(C(F)(F)F)c2)C2=C(C(=O)CC2)C1c1ccc(C#N)cc1C(=O)NCC(=O)N1CCOCC1 (stereo not shown) [Example 1.80] | 6
15 | CN(CCN1CCOCC1)C(=O)c1cc(C#N)ccc1C1C2=C(CCC2=O)N(c2cccc(C(F)(F)F)c2)C(=O)N1C (stereo not shown) [Example 1.81] | 1.6
16 | CC(=O)N[C@H]1CCN(C(=O)c2cc(C#N)ccc2C2C3=C(CCC3=O)N(c3cccc(C(F)(F)F)c3)C(=O)N2C)C1 (stereo partly shown) [Example 1.83] | 2.2
17 | CC(=O)N[C@@H]1CCN(C(=O)c2cc(C#N)ccc2C2C3=C(CCC3=O)N(c3cccc(C(F)(F)F)c3)C(=O)N2C)C1 (stereo partly shown) [Example 1.84] | 1.3
18 | CC(=O)N1CCN(C(=O)c2cc(C#N)ccc2C2C3=C(CCC3=O)N(c3cccc(C(F)(F)F)c3)C(=O)N2C)CC1 (stereo not shown) [Example 1.85] | 4.6
19 | CN(C)C(=O)c1cc(C#N)ccc1[C@@H]1C2=C(CCC2=O)N(c2cccc(C(F)(F)F)c2)C(=O)N1C [Example 2.2] | 1.1
20 | CN1C(=O)N(c2cccc(C(F)(F)F)c2)C2=C(C(=O)CC2)[C@H]1c1ccc(C#N)cc1C(=O)N1CCOCC1 [Example 2.3] | 2.9

Row | Compound | IC50 [nM]
21 | CN1CCN(C(=O)c2cc(C#N)ccc2[C@@H]2C3=C(CCC3=O)N(c3cccc(C(F)(F)F)c3)C(=O)N2C)CC1 [Example 2.4] | 3.1
22 | CN1C(=O)N(c2cccc(C(F)(F)F)c2)C2=C(C(=O)CC2)C1c1ccc(C#N)cc1C(=O)NC1CCC(O)C1 (stereo not shown) [Example 3, 5-Cyano-N-(3-hydroxy-cyclopentyl)-2-[3-methyl-2,5-dioxo-1-(3-trifluoromethyl-phenyl)-2,3,4,5,6,7-hexahydro-1H-cyclopentapyrimidin-4-yl]-benzamide] | 7.6
23 | CN(C)CCN(C)C(=O)c1cc(C#N)ccc1C1C2=C(CCC2=O)N(c2cccc(C(F)(F)F)c2)C(=O)N1C (stereo not shown) [Example 3.1] | 1.3
24 | CCN1CCN(C(=O)c2cc(C#N)ccc2C2C3=C(CCC3=O)N(c3cccc(C(F)(F)F)c3)C(=O)N2C)CC1 (stereo not shown) [Example 3.2] | 8.1
25 | CN1C(=O)N(c2cccc(C(F)(F)F)c2)C2=C(C(=O)CC2)C1c1ccc(C#N)cc1C(=O)N1CCN2CCCC2C1 (stereo not shown) [Example 3.3] | 7.5
26 | CC(C)N1CCN(C(=O)c2cc(C#N)ccc2C2C3=C(CCC3=O)N(c3cccc(C(F)(F)F)c3)C(=O)N2C)CC1 (stereo not shown) [Example 3.4] | 7.3
27 | CN1C(=O)N(c2cccc(C(F)(F)F)c2)C2=C(C(=O)CC2)C1c1ccc(C#N)cc1C(=O)N1C[C@H]2C[C@@H]1C[N+]2(C)C (stereo partly shown) [Example 3.5] | 7
28 | CN1C(=O)N(c2cccc(C(F)(F)F)c2)C2=C(C(=O)CC2)C1c1ccc(C#N)cc1C(=O)N1CCC(N)CC1 (stereo not shown) [Example 4.1] | 15.1
29 | CN1C(=O)N(c2cccc(C(F)(F)F)c2)C2=C(C(=O)CC2)C1c1ccc(C#N)cc1C(=O)NC1CCNCC1 (stereo not shown) [Example 4.2] | 7.1
30 | CN1C(=O)N(c2cccc(C(F)(F)F)c2)C2=C(C(=O)CC2)C1c1ccc(C#N)cc1C(=O)NCCN (stereo not shown) [Example 4.3] | 3.1
31 | CNCCNC(=O)c1cc(C#N)ccc1C1C2=C(CCC2=O)N(c2cccc(C(F)(F)F)c2)C(=O)N1C (stereo not shown) [Example 4.4] | 4.7
32 | CN(CCN)C(=O)c1cc(C#N)ccc1C1C2=C(CCC2=O)N(c2cccc(C(F)(F)F)c2)C(=O)N1C (stereo not shown) [Example 4.5] | 2
33 | CN1C(=O)N(c2cccc(C(F)(F)F)c2)C2=C(C(=O)CC2)C1c1ccc(C#N)cc1C(=O)N[C@H]1CCNC1 (stereo partly shown) [Example 4.6] | 6.9
34 | CN1C(=O)N(c2cccc(C(F)(F)F)c2)C2=C(C(=O)CC2)C1c1ccc(C#N)cc1C(=O)N1CC[C@H](N)C1 (stereo partly shown) [Example 4.7] | 3.3
35 | CN1C(=O)N(c2cccc(C(F)(F)F)c2)C2=C(C(=O)CC2)C1c1ccc(C#N)cc1C(=O)N1CC[C@@H](N)C1 (stereo partly shown) [Example 4.8] | 5.9
36 | CN1C(=O)N(c2cccc(C(F)(F)F)c2)C2=C(C(=O)CC2)C1c1ccc(C#N)cc1C(=O)N[C@@H]1CCNC1 (stereo partly shown) [Example 4.9] | 6.4
37 | CNCCN(C)C(=O)c1cc(C#N)ccc1C1C2=C(CCC2=O)N(c2cccc(C(F)(F)F)c2)C(=O)N1C (stereo not shown) [Example 4.10] | 1.4
38 | CN1C(=O)N(c2cccc(C(F)(F)F)c2)C2=C(C(=O)CC2)C1c1ccc(C#N)cc1C(=O)NCC(C)(C)N (stereo not shown) [Example 4.11] | 6.2
39 | CN[C@H]1CCN(C(=O)c2cc(C#N)ccc2C2C3=C(CCC3=O)N(c3cccc(C(F)(F)F)c3)C(=O)N2C)C1 (stereo partly shown) [Example 4.12] | 3.8
40 | CN1C(=O)N(c2cccc(C(F)(F)F)c2)C2=C(C(=O)CC2)C1c1ccc(C#N)cc1C(=O)N[C@H]1C[C@@H]1N (stereo partly shown) [Example 4.13] | 5.6

Row | Compound | IC50 [nM]
41 | CN1C(=O)N(c2cccc(C(F)(F)F)c2)C2=C(C(=O)CC2)C1c1ccc(C#N)cc1C(=O)N[C@H]1C[C@H]1N (stereo partly shown) [Example 4.14] | 4.9
42 | CN1C(=O)N(c2cccc(C(F)(F)F)c2)C2=C(C(=O)CC2)C1c1ccc(C#N)cc1C(=O)N1C[C@H]2C[C@@H]1CN2 (stereo partly shown) [Example 4.15] | 7.3
43 | CC1CN(C(=O)c2cc(C#N)ccc2C2C3=C(CCC3=O)N(c3cccc(C(F)(F)F)c3)C(=O)N2C)CCN1 (stereo not shown) [Example 4.16] | 10.8
44 | CN1C(=O)N(c2cccc(C(F)(F)F)c2)C2=C(C(=O)CC2)C1c1ccc(C#N)cc1C(=O)N1CC2COCC(C1)N2 (stereo not shown) [Example 4.17] | 36.2
45 | CN1C(=O)N(c2cccc(C(F)(F)F)c2)C2=C(C(=O)CC2)C1c1ccc(C#N)cc1C(=O)N1CCNCC1 (stereo not shown) [Example 4] | 7.5
46 | CN1C(=O)N(c2cccc(C(F)(F)F)c2)C2=C(C(=O)CC2)C1c1ccc(C#N)cc1C(=O)NC(C)(C)C#N (stereo not shown) [Example 5, 5-Cyano-N-(cyano-dimethyl-methyl)-2-[3-methyl-2,5-dioxo-1-(3-trifluoromethyl-phenyl)-2,3,4,5,6,7-hexahydro-1H-cyclopentapyrimidin-4-yl]-benzamide] | 3.4
47 | CN1C(=O)N(c2cccc(C(F)(F)F)c2)C2=C(C(=O)CCC2)C1c1ccc(C#N)cc1C(N)=O (stereo not shown) [Example 6, 5-Cyano-2-[3-methyl-2,5-dioxo-1-(3-trifluoromethyl-phenyl)-1,2,3,4,5,6,7,8-octahydro-quinazolin-4-yl]-benzamide] | 1.6
48 | CN1C(=O)N(c2cccc(C(F)(F)F)c2)C2=C(C(=O)CCC2)C1c1ccc(C#N)cc1C(=O)N1CCOCC1 (stereo not shown) [Example 6.1] | 2.9
49 | CN1CCN(C(=O)c2cc(C#N)ccc2C2C3=C(CCCC3=O)N(c3cccc(C(F)(F)F)c3)C(=O)N2C)CC1 (stereo not shown) [Example 6.2] | 5.1
50 | CN1C(=O)N(c2cccc(C(F)(F)F)c2)C2=C(C(=O)CCC2)C1c1ccc(C#N)cc1C(=O)N1CCNCC1 (stereo not shown) [Example 6.3] | 3.5
51 | CN(C)C(=O)c1cc(C#N)ccc1C1C2=C(CCCC2=O)N(c2cccc(C(F)(F)F)c2)C(=O)N1C (stereo not shown) [Example 6.4] | 1.1
52 | CN1C(=O)N(c2ccnc(C(F)(F)F)c2)C2=C(C(=O)CC2)[C@H]1c1ccc(C#N)cc1C(N)=O [Example 8, 5-Cyano-2-[(R)-3-methyl-1-(2-trifluoromethyl-pyridin-4-yl)-2,5-dioxo-2,3,4,5,6,7-hexahydro-1H-cyclopentapyrimidin-4-yl]-benzamide] | 41
53 | CNC(=O)c1cc(C#N)ccc1C1C2=C(CCC2=O)N(c2ccnc(C(F)(F)F)c2)C(=O)N1C (stereo not shown) [Example 8.1] | 25
54 | CN(C)C(=O)c1cc(C#N)ccc1C1C2=C(CCC2=O)N(c2ccnc(C(F)(F)F)c2)C(=O)N1C (stereo not shown) [Example 8.2] | 16.8
55 | CN1C(=O)N(c2ccnc(C(F)(F)F)c2)C2=C(C(=O)CC2)C1c1ccc(C#N)cc1C(=O)N1CCCC1 (stereo not shown) [Example 8.3] | 32.8
56 | CN1C(=O)N(c2ccnc(C(F)(F)F)c2)C2=C(C(=O)CC2)C1c1ccc(C#N)cc1C(=O)N1CCCCC1 (stereo not shown) [Example 8.4] | 181
57 | CN1C(=O)N(c2ccnc(C(F)(F)F)c2)C2=C(C(=O)CC2)C1c1ccc(C#N)cc1C(=O)N1CCOCC1 (stereo not shown) [Example 8.5] | 71.6
58 | CN1C(=O)N(c2cccc(C(F)(F)F)c2)C2=C(C(=O)CC2)C1c1ccc(C#N)cc1CN1CCOCC1 (stereo not shown) [Example 9, 4-[3-Methyl-2,5-dioxo-1-(3-trifluoromethyl-phenyl)-2,3,4,5,6,7-hexahydro-1H-cyclopentapyrimidin-4-yl]-3-morpholin-4-ylmethyl-benzonitrile] | 1.4

From patent publication US9458113B2 (Boehringer Ingelheim International GmbH, priority 2014, dated 2016)
